Assay results from patent publication EP0490380B1, “Use of N,N'-bis 3-(ethylamino)propyl -1,7-heptanediamine and a cytotoxic agent” (MERRELL PHARMACEUTICALS INC., priority 1990, dated 1992).
Where two headings read alike, the source gives them in different places. Marks after values point to notes of the source that are not given here.

What was measured:
[1] = test system: MCA38 (mouse colon adenocarcinoma); test: Cell viability by colorimetric MTT assay after 96 hour incubation, MCA38 cells; format: cell-based; details: for IC50: Mus musculus, 96 h
Method: (§1) In addition, the Fractional Inhibitory Concentration (FIC) for the various treatments was calculated. FIC's are an accepted measurement of synergy [Middleton and Westmacott, J.Antimicrobial Chemother. […] For two interacting drugs, the sum of the FIC's of each of the treatments expresses the extent of the synergistic interaction.
(§2) Where FIC is less than 1, there is synergy between the two treatments, where FIC is 1, there is no synergy (additive effect). The smaller the value for FIC, the greater the synergistic interaction.

[2] = test system: HeLa cells; test: Cell viability by colorimetric MTT assay after 96 hour incubation, HeLa cells; format: cell-based; details: for IC50: Homo sapiens, HeLa
Method: as §1, §2

[3] = test system: L1210 Leukemia; test: Conjunctive therapy of L1210 leukemia in vivo (survival); details: BDF1 male mice, 10^5 L1210 cells i.p. day 0, control 7.6±0.5
Method: Groups of 5 mice (BDF1 male) were inoculated i.p. with 10^5 L1210 leukemia cells on day 0. Vinblastine was administered at 0.5 mg/kg, i.p., on day 3. The compound N,N'-bis(3-(ethylamino) propyl]-1,7-heptanediamine was administered at 5 mg/kg, every 3 hours, 4 times per day, on days 4 and 5. Control group received no treatment after inoculation. Relative survival time was determined and expressed as % T/C (mean survival time treated/mean survival time control x 100). The results of these studies are presented in Table 1. Table 1

Question: With Nc1ccn([C@@H]2O[C@H](CO)[C@@H](O)[C@@H]2O)c(=O)n1 [AraC, cytarabine] as the compound, how does the IC50 ([1]; MCA 38 cells, 28,314 at 0 µg/mL (AraC alone), read-out: IC50 AraC) read?
Answer: Its IC50 is 660 ng/mL.

Question: And the IC50 ([1]; MCA 38 cells, 28,314 at 0.1563 µg/mL, read-out: IC50 AraC)?
Answer: Its IC50 is 596 ng/mL.

Question: And the IC50 ([1]; MCA 38 cells, 28,314 at 0.3125 µg/mL, read-out: IC50 AraC)?
Answer: The IC50 was 488 ng/mL.

Question: What about the IC50 ([1]; MCA 38 cells, 28,314 at 0.625 µg/mL, read-out: IC50 AraC) of the same compound?
Answer: The IC50 was 360 ng/mL.

Question: And the IC50 ([1]; MCA 38 cells, 28,314 at 1.25 µg/mL, read-out: IC50 AraC)?
Answer: The IC50 was 230 ng/mL.

Question: And the IC50 ([1]; MCA 38 cells, 28,314 at 2.5 µg/mL, read-out: IC50 AraC)?
Answer: The IC50 was 71 ng/mL.

Question: What about the IC50 ([2]; 96 h, 28,314 at 0 µg/mL (AraC alone), read-out: IC50 AraC) of the same compound?
Answer: Its IC50 is 1020 ng/mL.

Question: And the IC50 ([2]; 96 h, 28,314 at 0.1563 µg/mL, read-out: IC50 AraC)?
Answer: Its IC50 is 630 ng/mL.

Question: What about the IC50 ([2]; 96 h, 28,314 at 0.3125 µg/mL, read-out: IC50 AraC) of the same compound?
Answer: The IC50 was 600 ng/mL.

Question: What about the IC50 ([2]; 96 h, 28,314 at 0.625 µg/mL, read-out: IC50 AraC) of the same compound?
Answer: Its IC50 is 530 ng/mL.

Question: And the IC50 ([2]; 96 h, 28,314 at 1.25 µg/mL, read-out: IC50 AraC)?
Answer: The IC50 was 370 ng/mL.

Question: And the IC50 ([2]; 96 h, 28,314 at 2.5 µg/mL, read-out: IC50 AraC)?
Answer: The IC50 was 350 ng/mL.

Question: What about the IC50 ([2]; 96 h, 28,314 at 5 µg/mL, read-out: IC50 AraC) of the same compound?
Answer: The IC50 was 220 ng/mL.

Question: And the IC50 ([2]; 96 h, 28,314 at 10 µg/mL, read-out: IC50 AraC)?
Answer: The IC50 was 150 ng/mL.

Question: And the IC50 ([2]; 96 h, 28,314 at 20 µg/mL, read-out: IC50 AraC)?
Answer: Its IC50 is 140 ng/mL.

Question: And the IC50 ([2]; 96 h, 28,314 at 40 µg/mL, read-out: IC50 AraC)?
Answer: The IC50 was 140 ng/mL.

Question: What about the IC50 ([2]; 96 h, 28,314 at 80 µg/mL, read-out: IC50 AraC) of the same compound?
Answer: Its IC50 is 140 ng/mL.

Question: Which results are given for CC[C@]1(O)C[C@@H]2CN(CCc3c([nH]c4ccccc34)[C@@](C(=O)OC)(c3cc4c(cc3OC)N(C)[C@H]3[C@@](O)(C(=O)OC)[C@H](OC(C)=O)[C@]5(CC)C=CCN6CC[C@]43[C@@H]65)C2)C1 [Vinblastine, vinblastine]?
Answer: Mean Survival Time ([3]; Vinblastine 0.5 mg/kg i.p. day 3): 10.0 ± 0.7 days; IC50 ([1]; MCA 38 cells, 28,314 at 0 µg/mL (vinblastine alone), read-out: IC50 Vinblastin): 59.5 ng/mL; IC50 ([1]; MCA 38 cells, 28,314 at 0.1563 µg/mL, read-out: IC50 Vinblastin): 54.8 ng/mL; IC50 ([1]; MCA 38 cells, 28,314 at 0.3125 µg/mL, read-out: IC50 Vinblastin): 43 ng/mL; IC50 ([1]; MCA 38 cells, 28,314 at 0.625 µg/mL, read-out: IC50 Vinblastin): 33 ng/mL; IC50 ([1]; MCA 38 cells, 28,314 at 1.25 µg/mL, read-out: IC50 Vinblastin): 25 ng/mL; IC50 ([1]; MCA 38 cells, 28,314 at 2.5 µg/mL, read-out: IC50 Vinblastin): 15 ng/mL; IC50 ([1]; MCA 38 cells, 28,314 at 5.0 µg/mL, read-out: IC50 Vinblastin): 3 ng/mL; IC50 ([2]; 96 h, 28,314 at 0 µg/mL (vinblastine alone), read-out: IC50 Vinblastin): 1.6 ng/mL; IC50 ([2]; 96 h, 28,314 at 0.1563 µg/mL, read-out: IC50 Vinblastin): 1.33 ng/mL; IC50 ([2]; 96 h, 28,314 at 0.3125 µg/mL, read-out: IC50 Vinblastin): 1.33 ng/mL; IC50 ([2]; 96 h, 28,314 at 0.625 µg/mL, read-out: IC50 Vinblastin): 1.19 ng/mL; IC50 ([2]; 96 h, 28,314 at 1.25 µg/mL, read-out: IC50 Vinblastin): 1.17 ng/mL; IC50 ([2]; 96 h, 28,314 at 2.5 µg/mL, read-out: IC50 Vinblastin): 0.63 ng/mL; IC50 ([2]; 96 h, 28,314 at 5 µg/mL, read-out: IC50 Vinblastin): 0.24 ng/mL; IC50 ([2]; 96 h, 28,314 at 10 µg/mL, read-out: IC50 Vinblastin): 0.11 ng/mL; IC50 ([2]; 96 h, 28,314 at 20 µg/mL, read-out: IC50 Vinblastin): 0.09 ng/mL

Question: For COc1cccc2c1C(=O)c1c(O)c3c(c(O)c1C2=O)C[C@@](O)(C(=O)CO)C[C@@H]3O[C@H]1C[C@H](N)[C@H](O)[C@H](C)O1 [Adriamycin, adriamycin], which IC50 ([1]; MCA 38 cells, 28,314 at 0 µg/mL (adriamycin alone), read-out: IC50 Adriamycin) is on record?
Answer: Its IC50 is 7.9 ng/mL.

Question: What about the IC50 ([1]; MCA 38 cells, 28,314 at 0.39 µg/mL, read-out: IC50 Adriamycin) of the same compound?
Answer: The IC50 was 7.5 ng/mL.

Question: And the IC50 ([1]; MCA 38 cells, 28,314 at 0.78 µg/mL, read-out: IC50 Adriamycin)?
Answer: The IC50 was 7.3 ng/mL.

Question: And the IC50 ([1]; MCA 38 cells, 28,314 at 1.563 µg/mL, read-out: IC50 Adriamycin)?
Answer: The IC50 was 7 ng/mL.

Question: What about the IC50 ([1]; MCA 38 cells, 28,314 at 3.125 µg/mL, read-out: IC50 Adriamycin) of the same compound?
Answer: Its IC50 is 6.3 ng/mL.

Question: What about the IC50 ([1]; MCA 38 cells, 28,314 at 6.25 µg/mL, read-out: IC50 Adriamycin) of the same compound?
Answer: The IC50 was 2.5 ng/mL.

Question: What about the IC50 ([1]; MCA 38 cells, 28,314 at 12.5 µg/mL, read-out: IC50 Adriamycin) of the same compound?
Answer: Its IC50 is 1.8 ng/mL.

Question: And the IC50 ([2]; 96 h, 28,314 at 0 µg/mL (adriamycin alone), read-out: IC50 Adriamycin)?
Answer: Its IC50 is 8.6 ng/mL.

Question: What about the IC50 ([2]; 96 h, 28,314 at 0.2 µg/mL, read-out: IC50 Adriamycin) of the same compound?
Answer: Its IC50 is 6.7 ng/mL.

Question: And the IC50 ([2]; 96 h, 28,314 at 0.39 µg/mL, read-out: IC50 Adriamycin)?
Answer: Its IC50 is 5.8 ng/mL.

Question: And the IC50 ([2]; 96 h, 28,314 at 0.78 µg/mL, read-out: IC50 Adriamycin)?
Answer: The IC50 was 4.8 ng/mL.

Question: What about the IC50 ([2]; 96 h, 28,314 at 1.5625 µg/mL, read-out: IC50 Adriamycin) of the same compound?
Answer: Its IC50 is 1.5 ng/mL.

Question: With CCNCCCNCCCCCCCNCCCNCC [Compound 28,314, N,N'-Bis[3-(ethylamino)propyl]-1,7-heptanediamine] as the compound, how does the “Mean Survival Time” value ([3]; 28,314 5 mg/kg every 3 hours, 4 times per day (20 mg/Kg/day), days 4,5) read?
Answer: The value was 12.6 ± 0.9 days.

Question: And the IC50 ([1]; MCA 38 cells, Table 2 (cisplatin series), read-out: IC50 28,314 alone)?
Answer: The IC50 was 17700 ng/mL.

Question: What about the IC50 ([1]; MCA 38 cells, Table 3 (adriamycin series), read-out: IC50 28,314 alone) of the same compound?
Answer: The IC50 was 25000 ng/mL.

Question: What about the IC50 ([1]; MCA 38 cells, Table 4 (AraC series), read-out: IC50 28,314 alone) of the same compound?
Answer: The IC50 was 3540 ng/mL.

Question: What about the IC50 ([1]; MCA 38 cells, Table 5 (vinblastine series), read-out: IC50 28,314 alone) of the same compound?
Answer: The IC50 was 10000 ng/mL.

Question: And the IC50 ([2]; 96 h, Table 6 (cisplatin series), read-out: IC50 28,314 alone)?
Answer: The IC50 was ~200000 ng/mL.

Question: And the IC50 ([2]; 96 h, Table 7 (adriamycin series), read-out: IC50 28,314 alone)?
Answer: Its IC50 is 1590 ng/mL.

Question: What about the IC50 ([2]; 96 h, Table 8 (AraC series), read-out: IC50 28,314 alone) of the same compound?
Answer: Its IC50 is ~160000 ng/mL.

Question: Which results are given for N.N.[Cl][Pt][Cl] [Cisplatin]?
Answer: IC50 Cisplatin ([1]; MCA 38 cells, 28,314 at 0 µg/mL (cisplatin alone)): 0.847 µg/mL; IC50 Cisplatin ([1]; MCA 38 cells, 28,314 at 0.2 µg/mL): 0.58 µg/mL; IC50 Cisplatin ([1]; MCA 38 cells, 28,314 at 0.39 µg/mL): 0.387 µg/mL; IC50 Cisplatin ([1]; MCA 38 cells, 28,314 at 0.78 µg/mL): 0.376 µg/mL; IC50 Cisplatin ([1]; MCA 38 cells, 28,314 at 1.56 µg/mL): 0.276 µg/mL; IC50 Cisplatin ([1]; MCA 38 cells, 28,314 at 3.125 µg/mL): 0.177* µg/mL; IC50 Cisplatin ([1]; MCA 38 cells, 28,314 at 6.25 µg/mL): 0.165 µg/mL; IC50 Cisplatin ([1]; MCA 38 cells, 28,314 at 12.5 µg/mL): 0.053 µg/mL; IC50 Cisplatin ([2]; 28,314 at 0 µg/mL (cisplatin alone)): 0.359 µg/mL; IC50 Cisplatin ([2]; 28,314 at 0.39 µg/mL): 0.336 µg/mL; IC50 Cisplatin ([2]; 28,314 at 0.78 µg/mL): 0.276 µg/mL; IC50 Cisplatin ([2]; 28,314 at 1.563 µg/mL): 0.186 µg/mL; IC50 Cisplatin ([2]; 28,314 at 3.125 µg/mL): 0.130 µg/mL; IC50 Cisplatin ([2]; 28,314 at 6.25 µg/mL): 0.088 µg/mL; IC50 Cisplatin ([2]; 28,314 at 12.5 µg/mL): 0.074* µg/mL; IC50 Cisplatin ([2]; 28,314 at 25 µg/mL): 0.068 µg/mL; IC50 Cisplatin ([2]; 28,314 at 50 µg/mL): 0.068 µg/mL; IC50 Cisplatin ([2]; 28,314 at 100 µg/mL): 0.057 µg/mL
